Laboratory results as given in PubChem BioAssay (NCI).
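Here, GI50 denotes the concentration required for 50% inhibition of growth. TGI marks complete inhibition of growth.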

What was measured:
Experiment in all cases: DTP human tumour cell line panel, 384-well format
786-0 renal = test system: 786-0 renal
A498 renal = test system: A498 renal
ACHN renal = test system: ACHN renal
CAKI-1 renal = test system: CAKI-1 renal
CCRF-CEM leukemia = test system: CCRF-CEM leukemia
COLO 205 colon = test system: COLO 205 colon
DU-145 prostate = test system: DU-145 prostate
EKVX NSCLC = test system: EKVX NSCLC
HCC-2998 colon = test system: HCC-2998 colon
HCT-116 colon = test system: HCT-116 colon
HCT-15 colon = test system: HCT-15 colon
HL-60(TB) leukemia = test system: HL-60(TB) leukemia
HOP-62 NSCLC = test system: HOP-62 NSCLC
HOP-92 NSCLC = test system: HOP-92 NSCLC
K-562 leukemia = test system: K-562 leukemia
LOX IMVI melanoma = test system: LOX IMVI melanoma
M14 melanoma = test system: M14 melanoma
MALME-3M melanoma = test system: MALME-3M melanoma
MCF7 breast = test system: MCF7 breast
MDA-MB-435 melanoma = test system: MDA-MB-435 melanoma
MDA-MB-468 breast = test system: MDA-MB-468 breast
NCI-H226 lung = test system: NCI-H226 lung
NCI-H23 lung = test system: NCI-H23 lung
NCI-H322M lung = test system: NCI-H322M lung
NCI-H460 NSCLC = test system: NCI-H460 NSCLC
NCI/ADR-RES ovarian = test system: NCI/ADR-RES ovarian
OVCAR-3 ovarian = test system: OVCAR-3 ovarian
OVCAR-4 ovarian = test system: OVCAR-4 ovarian
OVCAR-5 ovarian = test system: OVCAR-5 ovarian
OVCAR-8 ovarian = test system: OVCAR-8 ovarian
PC-3 prostate = test system: PC-3 prostate
RPMI-8226 leukemia = test system: RPMI-8226 leukemia
RXF 393 renal = test system: RXF 393 renal
SF-268 CNS = test system: SF-268 CNS
SF-295 CNS = test system: SF-295 CNS
SK-MEL-2 melanoma = test system: SK-MEL-2 melanoma
SK-MEL-28 melanoma = test system: SK-MEL-28 melanoma
SK-MEL-5 melanoma = test system: SK-MEL-5 melanoma
SK-OV-3 ovarian = test system: SK-OV-3 ovarian
SN12C renal = test system: SN12C renal
SNB-19 CNS = test system: SNB-19 CNS
SR leukemia = test system: SR leukemia
SW-620 colon = test system: SW-620 colon
T-47D breast = test system: T-47D breast
TK-10 renal = test system: TK-10 renal
UACC-257 melanoma = test system: UACC-257 melanoma
UACC-62 melanoma = test system: UACC-62 melanoma

CS(=O)(=O)N1CCN(Cc2cc3nc(-c4cccc5[nH]ncc45)nc(N4CCOCC4)c3s2)CC1
GI50 ([…]-0 renal): 0.492 µM
TGI (786-0 renal): 2.77 µM
GI50 (A498 renal): 0.29 µM
TGI (A498 renal): 1.59 µM
GI50 (ACHN renal): 0.46 µM
TGI (ACHN renal): 6.92 µM
GI50 (CAKI-1 renal): 0.26 µM
TGI (CAKI-1 renal): 6.81 µM
GI50 (CCRF-CEM leukemia): 1.8 µM
TGI (CCRF-CEM leukemia): 6.98 µM
GI50 (COLO 205 colon): 0.48 µM
TGI (COLO 205 colon): 34.2 µM
GI50 (DU-145 prostate): 0.581 µM
TGI (DU-145 prostate): > 100 µM
GI50 (EKVX NSCLC): 0.185 µM
TGI (EKVX NSCLC): 2.7 µM
GI50 (HCC-2998 colon): 0.723 µM
TGI (HCC-2998 colon): 14.3 µM
GI50 (HCT-116 colon): 1.93 µM
TGI (HCT-116 colon): > 100 µM
GI50 (HCT-15 colon): 0.708 µM
TGI (HCT-15 colon): 24.1 µM
GI50 (HL-60(TB) leukemia): 0.0463 µM
TGI (HL-60(TB) leukemia): 0.593 µM
GI50 (HOP-62 NSCLC): 3.11 µM
TGI (HOP-62 NSCLC): > 100 µM
GI50 (HOP-92 NSCLC): 0.202 µM
TGI (HOP-92 NSCLC): 1.49 µM
GI50 (K-562 leukemia): 5.48 µM
TGI (K-562 leukemia): > 100 µM
GI50 (LOX IMVI melanoma): 0.827 µM
TGI (LOX IMVI melanoma): 11.7 µM
GI50 (M14 melanoma): 0.916 µM
TGI (M14 melanoma): > 100 µM
GI50 (MALME-3M melanoma): 0.223 µM
TGI (MALME-3M melanoma): 3.03 µM
GI50 (MCF7 breast): 0.0582 µM
TGI (MCF7 breast): 16.3 µM
GI50 (MDA-MB-435 melanoma): 1.18 µM
TGI (MDA-MB-435 melanoma): 11.9 µM
GI50 (MDA-MB-468 breast): 0.127 µM
TGI (MDA-MB-468 breast): 0.685 µM
GI50 (NCI-H226 lung): 0.648 µM
TGI (NCI-H226 lung): 4.9 µM
GI50 (NCI-H23 lung): 0.57 µM
TGI (NCI-H23 lung): 18.6 µM
GI50 (NCI-H322M lung): 0.442 µM
TGI (NCI-H322M lung): 5.32 µM
GI50 (NCI-H460 NSCLC): 0.206 µM
TGI (NCI-H460 NSCLC): 47.9 µM
GI50 (NCI/ADR-RES ovarian): 1.7 µM
TGI (NCI/ADR-RES ovarian): 49.9 µM
GI50 (OVCAR-3 ovarian): 0.28 µM
TGI (OVCAR-3 ovarian): 4.39 µM
GI50 (OVCAR-4 ovarian): 1.38 µM
TGI (OVCAR-4 ovarian): 41.2 µM
GI50 (OVCAR-5 ovarian): 0.553 µM
TGI (OVCAR-5 ovarian): > 100 µM
GI50 (OVCAR-8 ovarian): 1.11 µM
TGI (OVCAR-8 ovarian): > 100 µM
GI50 (PC-3 prostate): 0.165 µM
TGI (PC-3 prostate): 7.73 µM
GI50 (RPMI-8226 leukemia): 0.393 µM
TGI (RPMI-8226 leukemia): 1.67 µM
GI50 (RXF 393 renal): 0.152 µM
TGI (RXF 393 renal): 0.638 µM
GI50 (SF-268 CNS): 1.51 µM
TGI (SF-268 CNS): 23.3 µM
GI50 (SF-295 CNS): 0.454 µM
TGI (SF-295 CNS): 3.59 µM
GI50 (SK-MEL-2 melanoma): 7.04 µM
TGI (SK-MEL-2 melanoma): > 100 µM
GI50 (SK-MEL-28 melanoma): 0.202 µM
TGI (SK-MEL-28 melanoma): 4.18 µM
GI50 (SK-MEL-5 melanoma): 0.795 µM
TGI (SK-MEL-5 melanoma): 8.53 µM
GI50 (SK-OV-3 ovarian): 0.169 µM
TGI (SK-OV-3 ovarian): 1.62 µM
GI50 (SN12C renal): 0.328 µM
TGI (SN12C renal): 67.2 µM
GI50 (SNB-19 CNS): 4.38 µM
TGI (SNB-19 CNS): > 100 µM
GI50 (SR leukemia): 1.53 µM
TGI (SR leukemia): 4.01 µM
GI50 (SW-620 colon): 2.42 µM
TGI (SW-620 colon): > 100 µM
GI50 (T-47D breast): 0.0494 µM
TGI (T-47D breast): 0.341 µM
GI50 (TK-10 renal): 0.203 µM
TGI (TK-10 renal): 1.12 µM
GI50 (UACC-257 melanoma): 2.33 µM
TGI (UACC-257 melanoma): > 100 µM
GI50 (UACC-62 melanoma): 0.238 µM
TGI (UACC-62 melanoma): 1.93 µM

O=C(CCCCCCC(=O)N/N=C/c1ccc(N(c2ccccc2)c2ccccc2)cc1)NO
GI50 ([…]-0 renal): 1.84 µM
TGI (786-0 renal): 3.82 µM
GI50 (A498 renal): 0.146 µM
TGI (A498 renal): 0.283 µM
GI50 (ACHN renal): 1.79 µM
TGI (ACHN renal): 3.59 µM
GI50 (CAKI-1 renal): 0.256 µM
TGI (CAKI-1 renal): 1.14 µM
GI50 (CCRF-CEM leukemia): 0.979 µM
TGI (CCRF-CEM leukemia): 2.26 µM
GI50 (COLO 205 colon): 2.12 µM
TGI (COLO 205 colon): 3.85 µM
GI50 (DU-145 prostate): 1.74 µM
TGI (DU-145 prostate): 3.37 µM
GI50 (EKVX NSCLC): 2.62 µM
TGI (EKVX NSCLC): 6.52 µM
GI50 (HCC-2998 colon): 1.84 µM
TGI (HCC-2998 colon): 3.87 µM
GI50 (HCT-116 colon): 0.702 µM
TGI (HCT-116 colon): 1.89 µM
GI50 (HCT-15 colon): 2.8 µM
TGI (HCT-15 colon): 7.26 µM
GI50 (HL-60(TB) leukemia): 1.28 µM
TGI (HL-60(TB) leukemia): 2.56 µM
GI50 (HOP-62 NSCLC): 2.04 µM
TGI (HOP-62 NSCLC): 5.86 µM
GI50 (HOP-92 NSCLC): 1.05 µM
TGI (HOP-92 NSCLC): 2.62 µM
GI50 (K-562 leukemia): 1.42 µM
TGI (K-562 leukemia): 2.75 µM
GI50 (LOX IMVI melanoma): 0.19 µM
TGI (LOX IMVI melanoma): 0.369 µM
GI50 (M14 melanoma): 2.7 µM
TGI (M14 melanoma): 7.06 µM
GI50 (MALME-3M melanoma): 2.07 µM
TGI (MALME-3M melanoma): 4.62 µM
GI50 (MCF7 breast): 0.297 µM
TGI (MCF7 breast): 1.72 µM
GI50 (MDA-MB-435 melanoma): 3.91 µM
TGI (MDA-MB-435 melanoma): 11.9 µM
GI50 (MDA-MB-468 breast): 0.137 µM
TGI (MDA-MB-468 breast): 0.277 µM
GI50 (NCI-H226 lung): 0.187 µM
TGI (NCI-H226 lung): 0.365 µM
GI50 (NCI-H23 lung): 1.56 µM
TGI (NCI-H23 lung): 3.17 µM
GI50 (NCI-H322M lung): 3.11 µM
TGI (NCI-H322M lung): 9.54 µM
GI50 (NCI-H460 NSCLC): 1.16 µM
TGI (NCI-H460 NSCLC): 2.45 µM
GI50 (NCI/ADR-RES ovarian): 4.36 µM
TGI (NCI/ADR-RES ovarian): 15.9 µM
GI50 (OVCAR-3 ovarian): 0.673 µM
TGI (OVCAR-3 ovarian): 1.9 µM
GI50 (OVCAR-4 ovarian): 0.686 µM
TGI (OVCAR-4 ovarian): 2 µM
GI50 (OVCAR-5 ovarian): 0.665 µM
TGI (OVCAR-5 ovarian): 2.09 µM
GI50 (OVCAR-8 ovarian): 1.5 µM
TGI (OVCAR-8 ovarian): 3.88 µM
GI50 (PC-3 prostate): 1.77 µM
TGI (PC-3 prostate): 4.33 µM
GI50 (RPMI-8226 leukemia): 0.26 µM
TGI (RPMI-8226 leukemia): 0.574 µM
GI50 (RXF 393 renal): 0.79 µM
TGI (RXF 393 renal): 2.1 µM
GI50 (SF-268 CNS): 1.99 µM
TGI (SF-268 CNS): 3.94 µM
GI50 (SF-295 CNS): 1.75 µM
TGI (SF-295 CNS): 3.37 µM
GI50 (SK-MEL-2 melanoma): 1.45 µM
TGI (SK-MEL-2 melanoma): 2.83 µM
GI50 (SK-MEL-28 melanoma): 2.89 µM
TGI (SK-MEL-28 melanoma): 8.29 µM
GI50 (SK-MEL-5 melanoma): 1.63 µM
TGI (SK-MEL-5 melanoma): 3.1 µM
GI50 (SK-OV-3 ovarian): 1.37 µM
TGI (SK-OV-3 ovarian): 2.83 µM
GI50 (SN12C renal): 1.83 µM
TGI (SN12C renal): 3.62 µM
GI50 (SNB-19 CNS): 2.78 µM
TGI (SNB-19 CNS): 7.2 µM
GI50 (SR leukemia): 0.144 µM
TGI (SR leukemia): 0.321 µM
GI50 (SW-620 colon): 1.42 µM
TGI (SW-620 colon): 2.79 µM
GI50 (T-47D breast): 0.562 µM
TGI (T-47D breast): 1.6 µM
GI50 (TK-10 renal): 0.255 µM
TGI (TK-10 renal): 0.72 µM
GI50 (UACC-257 melanoma): 0.589 µM
TGI (UACC-257 melanoma): 1.31 µM
GI50 (UACC-62 melanoma): 0.397 µM
TGI (UACC-62 melanoma): 1.44 µM
